# Experimental data: US20250387409A1, “3-BETA-HYDROXY-3-ALPHA-ETHYL STEROIDS FOR MODULATION OF THE ALPHA-3 SUBTYPE OF THE GABAA RECEPTOR” (priority 2021, published 2025)
# Key:
# [1] = biological target: T1, human α1-β2-γ2L GABAA-receptor subtype (Homo sapiens, UniProt P14867+P47870); test: Patch clamp (Dynaflow) GABA-mediated current response, HEK-293 cells, α1β2γ2L; format: cell-based; conditions: 1 μM steroid; essentially as in Example 2
# T1 construct: expressed in transfected cells
# Text: (§1) In these tests the protocol was optimized to be like the physiological conditions in the synaptic cleft.
# (§2) Preparation of cell lines: HEK-293 cells permanently transfected with the human α1-β2-γ2L, α2-β3-γ2S, α3-ββ3-γ2L, α4-β3-δ or α5-β3-γ2L GABAA-receptor subtypes were used. The cell lines permanently expressing a functional human GABAA-receptor was made in following steps. The human GABAA-receptor subunits e.g. α1 (308-1727 NM_000806), β2 (214-1679 NM_000813), γ2L (290-1785 NM_198904), α2, β3, γ2S, α3, α4, δ and α5 including introduced Kozac sequences just before the start codons were subcloned into mammalian expression vectors containing Geneticin, Hygromycin B, and Zeocin resistance, respectively. A HEK-293 cell line stably expressing the three GABAA-receptor subunits was produced by transfection of the subunits, one at a time. The transfection was followed by selection with the appropriate antibiotics, cell separation with the use of subunit specific antibodies and production of single cell colonies. Produced cell lines were analysed with immunocytochemistry for the three GABAA-receptor subunits, followed by selection of a suitable cell line showing, for the GABAA-receptor normal and good reactivity in a patch-clamp analysis (see below) towards GABA and the GAMS THDOC.
# (§3) Cell culture: HEK-293 cells, permanently transfected with human α1-β2-γ2L, α2-β3-γ2S, α3-β3-γ2L, α4-β3-δ and α5-β3-γ2L GABAA-receptor subtypes, were seeded at a density of 3×10^4/25 cm^2 in cell binding culture flask. The transfected cells were used for patch-clamp experiments 3 days after seeding. When using the cells for patch-clamp experiments the cells were washed twice with oxygen-bubbled EC-solution (see below). About 5 mL EC was then added and the cells were kept in the incubator for about 15 minutes. After 15 minutes the cells came loose from the bottom of the flask and were separated by carefully sucking couple of times with a Pasteur pipette.
# (§4) Dynaflow™ system: Dynaflow™ system with resolve chips was used for all patch-clamp experiments. The resolve chips is made of non-sticky materials. The channel width is 150 μm and the height 50 μm. The well volume is 280 μL. Run time at the flow rate of 26 μL/min is […]. The pump settings were as follow: Omnifix 2 ml syringe with inner diameter of 9.65 mm was used. The syringe pump flow rate of chip was 26 μL/min.
# (§5) Steroids and GABA: GABA was dissolved in EC-solution by ultrasound for about 40 minutes to the concentration of 10 mM in room temperature. All steroids were dissolved to the concentration of 6 mM in dimethyl sulfoxide (DMSO). The DMSO concentration was 0.1% in all end-solutions, including the wash solution (EC) and the solution with GABA alone. End-solutions are the solutions added into the wells of the chip.
# Electrophysiology: Patch electrodes were pulled from 1.5 mm O.D., 0.86 mm I.D. borosilicate capillary glass without filament. […] The intracellular solution (IC) comprised of (in mM): 140 Cs-gluconate, 3.0 NaCl, 1.2 MgCl2, 1.0 EGTA, 10 HEPES. pH was adjusted to 7.2 with CsOH. The extracellular (EC) solution used during recordings contained (in mM): 137 NaCl, 5.0 KCl, 1.0 CaCl2), 1.2 MgCl2, 10 HEPES, 10 glucose. pH was adjusted with NaOH to 7.4. After compensating for the liquid junction potential, a steady holding potential of −17 mV was used in all experiments. In physiological conditions the HEK-293 has a resting potential at −40 mV and a low concentration of chloride ions inside the cell. […]
# [2] = biological target: T2, human α3-β3-γ2L GABAA-receptor subtype (Homo sapiens, UniProt P28472+P34903); test: Patch clamp (Dynaflow) GABA-mediated current response, HEK-293 cells, α3β3γ2L; format: cell-based; conditions: 1 μM steroid; essentially as in Example 2
# T2 construct: expressed in transfected cells
# Text: as §1, §2, §3, §4, §5
# (§6) Electrophysiology: Patch electrodes were pulled from 1.5 mm O.D., 0.86 mm I.D. borosilicate capillary glass without filament. […] The intracellular solution (IC) comprised of (in mM): 140 Cs-gluconate, 3.0 NaCl, 1.2 MgCl2, 1.0 EGTA, 10 HEPES. pH was adjusted to 7.2 with CsOH. The extracellular (EC) solution used during recordings contained (in mM): 137 NaCl, 5.0 KCl, 1.0 CaCl2), 1.2 MgCl2, 10 HEPES, 10 glucose. pH was adjusted with NaOH to 7.4. After compensating for the liquid junction potential, a steady holding potential of −17 mV was used in all experiments. In physiological conditions the HEK-293 has a resting potential at −40 mV and a low concentration of chloride ions inside the cell. By using the holding potential of-17 mV and the intracellular solution with low chloride ion concentration the chloride ions flux into the cell when the receptors are activated. All experiments were performed at room temperature (21 to 23° C.). The following standard protocol was used for all experiments.
# (§7) GABA applications: By using the Dynaflow equipment it is possible to study transfected HEK-293 during almost physiological conditions.
# [3] = biological target: T3, human GABAA-receptor subtype α3β3γ2L (Homo sapiens, UniProt P28472+P34903); test: Patch clamp (Dynaflow) THDOC enhancement of GABA response, HEK-293 cells, α3β3γ2L; format: cell-based; conditions: 1 μM steroid + THDOC
# T3 construct: expressed in transfected cells
# Text: as §1, §2, §3, §4, §5, §6, §7
# [4] = biological target: T4, GABAA receptor subtype α1β2γ2 (Homo sapiens, UniProt P14867+P47870); test: Patch clamp THDOC enhancement of GABA response, α1β2γ2; format: cell-based; conditions: 1 μM steroid + THDOC
# T4 construct: expressed in transfected cells
# Text: as §1
# as §2, with “THDOC. […]” for “THDOC.”
# Male Wistar rats [5] = test: Weight increase in growing male rats, experiment 1 (IV injections, 5 days); format: in vivo, rat; conditions: 2 mg/kg IV
# Experimental: (§8) Animals: Male Wistar rats were kept in group cages, with three animals per cage, from delivery and throughout the period of experiments. The individual animals were marked so that they could be identified throughout the experiment duration. The animals weight an average of 152 g upon arrival. A reversed light dark (12:12h) cycle was used with the dark period onset at 0600 hrs. Altogether fifty-six (56) rats were used in this study (experiment 1+2). The animals were delivered from the breeder Taconic (Denmark). The study protocol was approved by the Regional Ethics Committee of Umeå University, Sweden.
# (§9) Feeding: Standard chow and water were available ad libitum. A reversed 12-h dark-light cycle with lights off at 10.00 am and lights on at 22.00 pm was used. For identification, the rats were marked with a permanent marker on the tail. To avoid the endogenous allopregnanolone fluctuations that are present in the oestrous cycle of female rats, male rats were chosen (Frye et al. 2000). The animals were allowed to acclimatize for at least 3 weeks before start of the experimental sessions. During this period, the rats were repeatedly handled and allowed habituation to the new environment and to all new procedures, to minimize stress during the experiments.
# (§10) After 14 days of triad housing, handling and injection training of the animals, the animals were treated for 5 days with IV injections in experiment 1 and 10 days with a daily subcutaneous injection of the assigned treatment in experiment 2 (Tables 4 and 5). The injections were given at 08.00 every morning. The animals were weighed the day before onset of the treatment and at the last day of injection i.e. on the 5th or 10th day of treatment. Weight was taken at the time of the last injection. […] The results are shown in FIG. 3 (experiment 1) and FIG. 4 (experiment 2), respectively.
# Male Wistar rats [6] = test: Weight increase in growing male rats, experiment 2 (daily subcutaneous injection, 10 days); format: in vivo, rat; conditions: for reduced weight versus the E+P control rats / reduction in weight compared to vehicle: 10 days
# Experimental: as §8, §9, §10
# GABAA receptor = conditions: table 3 in WO 09/142594; cited from earlier work
# [7] = 1 mg/kg s.c. + 5 mg/kg progesterone + 10 μg/kg 17β-estradiol
# [8] = 5 mg/kg s.c. + 5 mg/kg progesterone + 10 μg/kg 17β-estradiol
# T4 sequence (P14867 28-456): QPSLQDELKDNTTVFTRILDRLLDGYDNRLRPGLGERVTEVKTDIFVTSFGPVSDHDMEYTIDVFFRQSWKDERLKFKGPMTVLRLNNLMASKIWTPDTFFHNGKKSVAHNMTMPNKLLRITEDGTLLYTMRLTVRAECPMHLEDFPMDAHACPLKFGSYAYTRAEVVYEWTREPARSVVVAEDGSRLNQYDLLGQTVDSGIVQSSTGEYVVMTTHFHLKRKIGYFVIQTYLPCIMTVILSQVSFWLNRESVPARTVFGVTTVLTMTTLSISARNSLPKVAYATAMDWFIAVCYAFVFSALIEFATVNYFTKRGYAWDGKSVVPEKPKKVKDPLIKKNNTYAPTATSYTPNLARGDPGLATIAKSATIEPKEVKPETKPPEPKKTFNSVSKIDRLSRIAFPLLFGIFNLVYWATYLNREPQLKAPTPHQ
# T4 sequence (P47870 26-474 isoform P47870-1 limits assumed): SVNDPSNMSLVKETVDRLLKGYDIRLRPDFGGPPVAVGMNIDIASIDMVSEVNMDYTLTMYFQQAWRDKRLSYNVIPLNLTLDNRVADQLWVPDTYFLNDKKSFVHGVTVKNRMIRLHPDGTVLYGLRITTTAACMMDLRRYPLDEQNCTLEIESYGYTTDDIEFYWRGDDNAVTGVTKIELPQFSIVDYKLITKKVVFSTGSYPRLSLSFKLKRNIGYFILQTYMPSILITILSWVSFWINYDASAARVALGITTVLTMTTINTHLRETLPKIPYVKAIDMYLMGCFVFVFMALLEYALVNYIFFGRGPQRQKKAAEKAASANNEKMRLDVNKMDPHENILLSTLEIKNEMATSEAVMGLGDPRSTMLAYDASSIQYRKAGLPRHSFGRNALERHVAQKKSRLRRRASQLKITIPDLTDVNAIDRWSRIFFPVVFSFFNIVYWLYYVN
# T4 sequence (P18507 40-475 partner): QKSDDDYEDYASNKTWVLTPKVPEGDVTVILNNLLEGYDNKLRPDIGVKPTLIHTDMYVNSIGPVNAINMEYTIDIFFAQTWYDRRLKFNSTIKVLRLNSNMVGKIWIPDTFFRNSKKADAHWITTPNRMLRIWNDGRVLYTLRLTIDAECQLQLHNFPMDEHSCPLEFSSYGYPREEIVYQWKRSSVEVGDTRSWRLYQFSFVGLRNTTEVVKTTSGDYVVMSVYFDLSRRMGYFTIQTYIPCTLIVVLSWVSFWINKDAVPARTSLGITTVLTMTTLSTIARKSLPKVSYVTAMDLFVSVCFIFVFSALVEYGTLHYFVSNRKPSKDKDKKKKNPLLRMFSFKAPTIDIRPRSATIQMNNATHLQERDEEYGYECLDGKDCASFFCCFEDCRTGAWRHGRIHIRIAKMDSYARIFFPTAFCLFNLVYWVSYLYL
# T1 sequence (P14867 28-456): as the sequence (P14867 28-456) above
# T1 sequence (P47870 26-474 isoform P47870-1 limits assumed): as the sequence (P47870 26-474 isoform P47870-1 limits assumed) above
# T1 sequence (P18507 40-475 partner): as the sequence (P18507 40-475 partner) above
# T2 sequence (P34903 29-492): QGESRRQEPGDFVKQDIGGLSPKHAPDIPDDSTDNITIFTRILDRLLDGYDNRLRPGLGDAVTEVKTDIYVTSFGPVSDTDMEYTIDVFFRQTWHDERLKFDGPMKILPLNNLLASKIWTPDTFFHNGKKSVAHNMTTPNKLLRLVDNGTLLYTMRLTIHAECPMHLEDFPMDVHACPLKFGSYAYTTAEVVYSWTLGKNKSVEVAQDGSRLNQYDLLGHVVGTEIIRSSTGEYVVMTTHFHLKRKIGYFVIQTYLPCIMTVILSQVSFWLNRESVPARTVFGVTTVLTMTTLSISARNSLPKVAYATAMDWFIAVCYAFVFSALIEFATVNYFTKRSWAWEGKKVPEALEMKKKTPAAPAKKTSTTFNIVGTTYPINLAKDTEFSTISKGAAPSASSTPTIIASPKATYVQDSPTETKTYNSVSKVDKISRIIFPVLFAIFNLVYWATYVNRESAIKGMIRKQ
# T2 sequence (P28472 26-473): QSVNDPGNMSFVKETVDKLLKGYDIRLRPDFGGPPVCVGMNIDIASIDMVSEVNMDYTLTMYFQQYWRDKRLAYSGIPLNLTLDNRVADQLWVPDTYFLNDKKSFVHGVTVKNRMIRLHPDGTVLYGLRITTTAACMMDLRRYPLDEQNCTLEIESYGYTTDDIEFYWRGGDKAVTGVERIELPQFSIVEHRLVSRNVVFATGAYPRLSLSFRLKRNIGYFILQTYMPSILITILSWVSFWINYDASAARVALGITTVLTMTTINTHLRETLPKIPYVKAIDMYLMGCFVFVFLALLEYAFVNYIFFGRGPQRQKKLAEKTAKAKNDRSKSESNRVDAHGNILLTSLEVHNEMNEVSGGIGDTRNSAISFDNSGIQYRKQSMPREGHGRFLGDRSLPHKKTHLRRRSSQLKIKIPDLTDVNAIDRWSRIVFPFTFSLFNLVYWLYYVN
# T2 sequence (P18507 40-475 partner): as the sequence (P18507 40-475 partner) above
# T3 sequence (P34903 29-492): as the sequence (P34903 29-492) above
# T3 sequence (P28472 26-473): as the sequence (P28472 26-473) above
# T3 sequence (P18507 40-475 partner): as the sequence (P18507 40-475 partner) above
compound,measurement,setting,value
C#C[C@]1(O)CC[C@@]2(C)[C@@H](CC[C@@H]3[C@@H]2CC[C@]2(C)C(=O)CC[C@@H]32)C1 [3α-ethynyl-3β-hydroxy-5α-androstan-17-one],"Effect against GABAs agonistic effect, α1β2γ2",[1],−1.9 ± 2.4%
same,"Effect against GABAs agonistic effect, a3β3γ2",[2],"−46 ± 1.3%,"
same,"Antagonism of 100 nM THDOC-enhancement, a3β3γ2",[3],"−166 + 19.9%,"
same,"Antagonism of 100 nM THDOC-enhancement, α1β2γ2",[4],No effect
same,increase in weight versus vehicle treated groups,Male Wistar rats [5],significantly lower
same,Mean weight increase since arrival. g,"Male Wistar rats [5]; in 10% β-cyclodextrine 1 ml/kg, first block of Table 6",97.43 g
same,Mean weight increase since arrival. g,Male Wistar rats [5]; second block of Table 6 (increase from start of treatment),11.86 g
same,reduced weight versus the E+P control rats,Male Wistar rats [6]; [7],-23.9 ± 4.4 g
same,reduction in weight compared to vehicle,Male Wistar rats [6]; [7],-33 ± 4.4 g
same,reduced weight versus the E+P control rats,Male Wistar rats [6]; [8],-20.4 ± 5.2 g
same,reduction in weight compared to vehicle,Male Wistar rats [6]; [8],-29.6 ± 5.2 g
same,weight difference after 10 days of treatment compared to vehicle,Male Wistar rats [6]; 10 days s.c. treatment,over 20%
same,effect as a GAMSA or GAMS,GABAA receptor,no effect as a GAMSA or GAMS
